Experimental data published in patent publication US8222487B2, “Application of ERF genes from Bupleurum kaoi” (National Tsing Hua University, priority 2009, dated 2012).

Tests used:
[1] = test system: B. kaoi adventitious roots; assay: qRT-PCR of MeJA-induced gene transcripts in adventitious roots; assay type: cell-based, Bupleurum kaoi; details: 500 μM MeJA
Protocol: Adventitious root cultures were induced from the roots of germ-free seedlings of B. kaoi and were subcultured every 6 weeks by adding 0.2 g roots to a 125 ml flask containing 50 ml of B5 liquid medium supplemented with 2 mg 1^−1 NAA. Cultures were shaken using a rotary shaker at 100 rpm at 25° C. in the dark. To quantify the effect of MeJA on saikosaponin level, adventitious roots were treated with 500 and 1000 μM MeJA 2 weeks after subculture. Total saikosaponin was measured 2 weeks after MeJA treatment. To monitor expression of MeJA-responsive genes, the nutrient medium was refreshed 4 weeks after subculture and MeJA (500 μM) was applied 2 weeks after refreshment. Roots were harvested at 13 time points (5 min; 1, 2, 8, 24 hours; 2, 4, 6, 8 days; 2, 3, 4, 5 weeks) after the addition of the MeJA.
Total cellular RNA was extracted as described by Chang et al. (Chang et al., Plant Mol. Biol. (1993) 693-699) with some modifications. Three to five grams of tissue was frozen in liquid nitrogen and ground to a fine powder with mortar and pestle. The powder was added to 15 ml of prewarmed (65° C.) extraction buffer (2%, v/v hexadecyltrimethylammonium bromide (CTAB), 2%, v/v polyvinylpyrrolidinone K 30 (PVP), 100 mM Tris-HCl, pH 8.0, 25 mM EDTA, 2 M NaCl, 0.5 mg ml^−1 spermidine, 2% β-mercaptoethanol), and mixed completely by vigorous shaking. The mixture was extracted twice with an equal volume of chloroform:isoamyl alcohol (24:1). The RNA was precipitated by adding ¼ volume of cold 10 M LiCl to the aqueous phase and held for 12 to 18 h at −20° C. After centrifugation at 19,800×g at 4° C., the RNA was dissolved in 500 μl sterile DEPC H2O. The resuspended RNA was reextracted with chloroform:isoamyl alcohol (24:1). Three volumes of 100% ethanol and 1/10 volume of 3 M sodium acetate (pH 5.2) were added to the aqueous phase, and the solution was precipitated with liquid nitrogen for 15 min The RNA was spun down at 19,800×g for 30 min at 4° C. and washed with 80% ethanol. The dried pellet was resuspended in sterile DEPC H2O.
Each RNA sample of 10 μg in 9 μl sterile DEPC H2O and 1 μl oligo-d(T)18 primer (100 μM) was denatured at 90° C. for 5 min and chilled on ice for 10 min Then 4μ5× reaction buffer (250 mM Tris-HCl, pH 8.0, 375 mM KCl, 15 mM MgCl2), 2 μl 10 mM dNTP, 2 μl 100 mM dithiothreitol (DTT), and 0.5 μl RNasin ribonuclease inhibitor (40 U μl^−1, Promega) were added and incubated at 37° C. for 10 min. After the addition of 1.5 μl Moloney murine leukemia virus (MMLV) reverse transcriptase (200 U μl^−1, Gibco BRL), the reaction was carried out at 37° C. for 90 min, 95° C. for 5 min, then chilled on ice. qRT-PCR reactions were performed with a SYBR Green PCR Master Mix (Applied Biosystems) in a 7500 Real-Time PCR System (Applied Biosystems) using primers designed with Primer Express 2.0 Software (Applied Biosystems). Each reaction was performed in triplicate, and contained 4 μl of a 1:1000 dilution of synthesized cDNA, primers to a final concentration of 100 nM each, 5 μl of the SYBR Green PCR Master mix and sterile deionized H2O to a total volume of 10 μl. PCR reactions were carried out at 50° C. for 2 min, 95° C. for 10 min, 40 cycles of 95° C. for 15 s and 60° C. for 1 min. The specificity of the amplified products was evaluated by analysis of the dissociation curves generated by the equipment. Non-template controls were prepared to confirm absence of contamination. The ratio between the relative amounts of the target gene and the endogenous control gene, in the qRT-PCR reactions, was determined based on the 2^−ΔΔCt method. The target gene expression level was plotted as log10 RQ (RQ=2^−ΔΔCt).

[2] = test system: cell suspension cultures of Medicago truncatula; details: 5 μM MeJA for 2 h; cited from earlier work

## CC/C=C\CC1C(=O)CCC1CC(=O)OC (centres unmarked) [MeJA, Methyl jasmonate]
[1]; 2 weeks
  Peroxidase AM409285 transcripts increase: 37 fold
[1]; 5 min
  BkGST1 (AM409308) transcripts increase: 3 fold
  BkGST2 (AM409289) transcripts activation: 6 fold
[1]; 1 h
  B. kaoi PAL (AM409299) transcripts increase: 3 fold
  BkERF1.2 (AM409280) transcripts increase: 133 fold
  Peroxidase AM409296 transcripts increase: 7 fold
  Phospholipase D alpha 1 (AM409303) transcripts induction: 6 fold
  Trypsin protease inhibitor AM409305 transcripts increase: 4 fold
[1]; 2 h
  ACO gene (AM409282) induction: 5 fold
  BkAOC (AM409312) mRNA level induction: 9 fold
  BkERF1.1 (AM409278) transcripts increase: 41 fold
  IAA-amino acid hydrolase (AM409294) transcripts increase: 50 fold
  PIN (AM409287) transcripts increase: 166 fold
  Prephenate dehydratase (AM409309) transcripts induction: 7 fold
  Trypsin protease inhibitor AM409295 transcripts increase: 5 fold
[1]; 8 h
  BkGST2 (AM409289) transcripts increase: 161 fold
  Peroxidase AM409285 transcripts increase: 5 fold
  Protease inhibitor (AM409279) transcripts increase: 4 fold
  Pyruvate kinase gene (AM409311) induction: 3 fold
  UDP-glucosyltransferase gene (AM409293) induction: 98 fold
[1]; 24 h
  Serine protease inhibitor (AM409301) mRNA level increase: 3 fold
[1]; 2 days
  Trypsin protease inhibitor AM409295 transcripts increase: 2051 fold
[1]; 4 days
  IAA-amido synthase gene (AM409281) induction: 5 fold
  IAA-amino acid hydrolase (AM409294) transcripts increase: 139 fold
  Pyruvate kinase gene (AM409311) induction: 9 fold
[1]; 6 days
  B. kaoi PAL (AM409299) transcripts increase: 23 fold
  Basic endochitinase gene (AM409300) induction: 726 fold
  BkSDR (AM409290) transcripts increase: 4 fold
  Glycosyl hydrolase family 18 protein gene (AM409313) induction: 61 fold
  LOX (AM409291) transcript induction: 4404 fold
  PIN (AM409287) transcripts increase: 178 fold
  Peroxidase AM409296 transcripts increase: 114 fold
  Phospholipase D alpha 1 (AM409303) transcripts induction: 44 fold
  Prephenate dehydratase (AM409309) transcripts induction: 27 fold
  Trypsin protease inhibitor AM409305 transcripts increase: 2944 fold
  Zinc finger C2H2 type gene (AM409288) transcripts induction: 118 fold
[1]; 8 days
  ACO gene (AM409282) induction: 19 fold
  BkGST1 (AM409308) transcripts increase: 17 fold
  IAA-amido synthase gene (AM409281) induction: 10 fold
  MYB gene (AM409302) transcripts increase: 53 fold
  OPR2 (AM409310) expression level induction: 19 fold
  Protease inhibitor (AM409279) transcripts increase: 90 fold
  Serine protease inhibitor (AM409301) mRNA level increase: 81 fold
[1]; after 2 weeks
  Plant defensin (AM409284) transcripts increase: 5 fold
[1]; primarily in 4-8 days
  Enoyl-CoA hydratase gene (AM409286) induction: 6 fold
[1]; time not stated
  β-amyrin synthase gene (β-AS, AM421813) transcript level increase: 2 fold
[2]
  PAL transcripts induction: 3 fold
